# In patent US9821002B2, “Method for alleviating radiation injury with isorhamnetin-3-O-β-D-glucoside” (Sinotai Oncology Associate., Ltd., priority 2015, dated 2017):
# Assays:
# BNL CL.2 cells = assay: Clonogenic assay after X-ray irradiation; format: cell-based, mouse; settings: 30 μM, 2 h pretreatment, X-ray 2, 4, 6 Gy, colonies after two weeks
# Description: (§1) Eight groups of BNL CL.2 cells (i.e., a normal control group referred to as Normal Control Group 1-A, an isorhamnetin-3-O-β-D-glucoside group referred to as Isorhamnetin-3-O-β-D-glucoside Group 1-A, three X-ray control groups referred to as X-Ray Control Groups 1-A to 3-A, and three experimental groups referred to as Experimental Groups 1-A to 3-A) and eight groups of NMuMG cells (i.e., a normal control group referred to as Normal Control Group 1-B, an isorhamnetin-3-O-β-D-glucoside group referred to as Isorhamnetin-3-O-β-D-glucoside Group 1-B, three X-ray control groups referred to as X-Ray Control Groups 1-B to 3-B, and three experimental groups referred to as Experimental Groups 1-B to 3-B) were prepared based on the procedure set forth in “Source and cultivation of cell lines” of “Experimental materials”. Specifically, BNL CL.2 cells in each group were cultivated using 5 mL of a corresponding medium shown in Table 1 and a 6-cm Petri dish in an amount of 2×10^5 cells per dish. Likewise, NMuMG cells in each group were cultivated using 5 mL of a corresponding medium shown in Table 1 and a 6-cm Petri dish in an amount of 2.5×10^5 cells per dish. The cultivation was conducted in an incubator (37° C., 5% CO2) for 24 hours. […]
# NMuMG cells = assay: Clonogenic assay after X-ray irradiation; format: cell-based, mouse; settings: 30 μM, 2 h pretreatment, X-ray 2, 4, 6 Gy, colonies after two weeks
# Description: as §1
compound,measurement,setting,value
COc1cc(-c2oc3cc(O)cc(O)c3c(=O)c2O[C@@H]2O[C@H](CO)[C@@H](O)[C@H](O)[C@H]2O)ccc1O [isorhamnetin-3-O-β-D-glucoside],survival fraction (clonogenic assay) versus X-ray control group,BNL CL.2 cells,higher than that of the X-ray control group
same,survival fraction (clonogenic assay) versus X-ray control group,NMuMG cells,higher than that of the X-ray control group
